Assay results as given in US20250032623A1, “HETEROBIFUNCTIONAL COMPOUNDS AND THEIR USE IN TREATING DISEASE” (HALDA THERAPEUTICS OPCO, INC., priority 2021, published 2025).

Experiments:
[1] = system: HEK293 cells; experiment: Cellular growth inhibition assay (CellTiter-Glo), HEK293 cells; format: cell-based; details: Homo sapiens, 72 h, three days compound treatment, CellTiter-Glo 2.0, read-out: CTG HEK293 GI50
Method: (§1) Exemplary compounds were tested for ability to inhibit the proliferation of HEK293 cells or HeLa cells.
(§2) HEK293 and HeLa cells were cultured in DMEM medium supplemented with 10% fetal bovine serum and 1% Penn/Strep. Cells were seeded in white 384-well plates at 500 cells/well in […] complete medium. Following seeding, plates were spun at 300×g for three minutes and cultured at 37° C. with 5% CO2 in a humidified tissue culture incubator.
(§3) After 24 hours, compounds were titrated in 100% DMSO and diluted in complete cell culture medium. […] of compound/media mixture was added to cells to bring total volume in well to […]. DMSO alone was used as a negative control. P lates were then spun at 300×g for three minutes and stored at 37° C. with 5% CO2 for three days.
(§4) On Day 0 and Day 3 of compound treatment, cell viability was quantified with CellTiter-Glo 2.0 reagent (Promega). After equilibrating microplates at room temperature for 30 minutes, 25 μL CellTiter-Glo 2.0 reagent was dispensed into each well to bring total volume to […]. Plates were mixed on shaker for 2 minutes at 500 rpm, followed by a 10-minute incubation at room temperature. Following a quick spin, luminescence readings were measured with an EnVision Plate Reader. Data was normalized to DMSO treated Day 0 and Day 3 readings. A four-parameter non-linear regression curve fit was applied to dose-response data in GraphPad Prism data analysis software to determine the half maximal growth inhibitory concentration (GI50) for each compound.

[2] = biological target: T1, EGFR T790M, L858R (amino acids 669-1011 Accession Number NP_005219.2) (Homo sapiens, UniProt P00533, L858R/T790M); experiment: KdELECT binding assay (Eurofins Discovery), EGFR T790M, L858R; details: read-out: EGFR DM Kd
T1 construct: purchased Eurofins Discovery; host or cells: mammalian cells (HEK-293)
Method: (§5) Exemplary compounds were tested for ability to bind to EGFR WT (amino acids 669-1011, Accession Number NP_005219.2) or EGFR T790M, L858R (amino acids 669-1011 Accession Number NP_005219.2) expressed from bacteria or mammalian cells, respectively. Compounds were tested using the KdELECT assay at Eurofins Discovery.
(§6) Kinase-tagged T7 phage strains were prepared in an E. coli host derived from the BL21 strain. E. coli were grown to log-phase and infected with T7 phage and incubated with shaking at 32° C. until lysis. The lysates were centrifuged and filtered to remove cell debris. The remaining kinases were produced in HEK-293 cells and subsequently tagged with DNA for qPCR detection. Streptavidin-coated magnetic beads were treated with biotinylated small molecule ligands for 30 minutes at room temperature to generate affinity resins for kinase assays. The liganded beads were blocked with excess biotin and washed with blocking buffer (SeaBlock (Pierce), 1% BSA, 0.05% Tween 20, 1 mM DTT) to remove unbound ligand and to reduce non-specific binding. Binding reactions were assembled by combining kinases, liganded affinity beads, and test compounds in 1× binding buffer (20% SeaBlock, 0.17×PBS, 0.05% Tween 20, 6 mM DTT). Test compounds were prepared as 111× stocks in 100% DMSO. Kd values were determined using an 11-point 3-fold compound dilution series with three DMSO control points. All compounds for Kd measurements are distributed by acoustic transfer (non-contact dispensing) in 100% DMSO. The compounds were then diluted directly into the assays such that the final concentration of DMSO was 0.9%. All reactions performed in polypropylene 384-well plate. Each was a final volume of 0.02 mL. The assay plates were incubated at room temperature with shaking for 1 hour and the affinity beads were washed with wash buffer (1× PBS, 0.05% Tween 20). The beads were then re-suspended in elution buffer (1× PBS, 0.05% Tween 20, 0.5 μM nonbiotinylated affinity ligand) and incubated at room temperature with shaking for 30 minutes. The kinase concentration in the eluates was measured by qPCR.

[3] = biological target: T2, EGFR (Homo sapiens, UniProt P00533); experiment: KdELECT binding assay, EGFR
T2 construct: purchased
Method: Exemplary compounds were tested for ability to bind to EGFR.
as §6, with “Compounds were tested using a KdELECT assay. Kinase-tagged” for “Kinase-tagged”

[4] = system: HeLa cells; experiment: Cellular growth inhibition assay (CellTiter-Glo), HeLa cells; format: cell-based; details: Homo sapiens, 72 h, three days compound treatment, CellTiter-Glo 2.0, read-out: CTG HELA GI50
Method: as §1, §2, §3, §4

[5] = biological target: T3, EGFR WT (amino acids 669-1011, Accession Number NP_005219.2) (Homo sapiens, UniProt P00533); experiment: KdELECT binding assay (Eurofins Discovery), EGFR WT
T3 construct: purchased Eurofins Discovery; host or cells: bacteria (E. coli, BL21-derived, T7 phage)
Method: as §5, §6

T1 sequence (P00533 669-1011 T790M/L858R): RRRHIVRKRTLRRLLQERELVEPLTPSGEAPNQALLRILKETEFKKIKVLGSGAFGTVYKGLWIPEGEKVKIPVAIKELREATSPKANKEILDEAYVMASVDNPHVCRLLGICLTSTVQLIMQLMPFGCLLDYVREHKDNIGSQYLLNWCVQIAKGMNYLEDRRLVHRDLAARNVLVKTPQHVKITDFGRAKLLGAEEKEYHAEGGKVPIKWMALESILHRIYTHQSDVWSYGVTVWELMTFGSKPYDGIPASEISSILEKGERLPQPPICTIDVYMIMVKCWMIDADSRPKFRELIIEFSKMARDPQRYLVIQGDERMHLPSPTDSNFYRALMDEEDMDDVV
T3 sequence (P00533 669-1011): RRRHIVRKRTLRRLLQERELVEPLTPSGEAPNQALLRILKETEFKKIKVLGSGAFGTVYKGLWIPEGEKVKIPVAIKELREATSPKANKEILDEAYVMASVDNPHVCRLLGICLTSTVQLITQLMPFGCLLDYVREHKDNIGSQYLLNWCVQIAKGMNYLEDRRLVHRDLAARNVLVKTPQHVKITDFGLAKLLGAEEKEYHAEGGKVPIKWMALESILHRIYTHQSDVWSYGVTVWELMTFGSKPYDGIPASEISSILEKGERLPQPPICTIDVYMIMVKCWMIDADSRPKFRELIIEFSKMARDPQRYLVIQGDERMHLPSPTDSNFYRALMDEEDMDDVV
T2 sequence (P00533 25-1210): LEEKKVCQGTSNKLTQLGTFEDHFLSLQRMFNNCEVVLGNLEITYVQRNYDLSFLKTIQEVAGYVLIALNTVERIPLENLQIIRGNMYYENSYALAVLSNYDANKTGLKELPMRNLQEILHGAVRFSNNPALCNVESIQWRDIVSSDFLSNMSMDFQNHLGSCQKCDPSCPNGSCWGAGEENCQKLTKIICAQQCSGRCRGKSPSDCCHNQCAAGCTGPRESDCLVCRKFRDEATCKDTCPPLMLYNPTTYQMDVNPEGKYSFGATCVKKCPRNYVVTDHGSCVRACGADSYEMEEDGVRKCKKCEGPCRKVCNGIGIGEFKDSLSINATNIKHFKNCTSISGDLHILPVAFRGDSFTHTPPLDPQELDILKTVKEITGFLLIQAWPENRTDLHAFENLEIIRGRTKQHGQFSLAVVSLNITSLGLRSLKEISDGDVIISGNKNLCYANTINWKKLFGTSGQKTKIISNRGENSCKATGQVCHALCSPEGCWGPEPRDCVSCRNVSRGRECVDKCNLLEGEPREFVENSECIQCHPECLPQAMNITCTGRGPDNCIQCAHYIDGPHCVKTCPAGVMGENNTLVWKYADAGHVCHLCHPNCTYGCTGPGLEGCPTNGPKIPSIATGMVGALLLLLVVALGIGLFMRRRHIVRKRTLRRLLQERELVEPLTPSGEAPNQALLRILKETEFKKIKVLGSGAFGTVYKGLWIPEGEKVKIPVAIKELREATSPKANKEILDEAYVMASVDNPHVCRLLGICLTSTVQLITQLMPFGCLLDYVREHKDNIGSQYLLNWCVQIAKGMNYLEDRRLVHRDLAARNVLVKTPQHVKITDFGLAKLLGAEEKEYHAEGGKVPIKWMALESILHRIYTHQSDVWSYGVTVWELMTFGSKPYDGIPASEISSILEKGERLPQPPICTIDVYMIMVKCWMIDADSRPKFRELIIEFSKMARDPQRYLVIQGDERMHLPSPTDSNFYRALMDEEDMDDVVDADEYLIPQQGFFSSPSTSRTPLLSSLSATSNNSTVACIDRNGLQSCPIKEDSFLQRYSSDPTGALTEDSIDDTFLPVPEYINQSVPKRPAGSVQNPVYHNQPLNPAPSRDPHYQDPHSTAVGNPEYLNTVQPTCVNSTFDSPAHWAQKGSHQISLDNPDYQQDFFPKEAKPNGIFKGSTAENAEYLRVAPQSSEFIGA

SMILES	GI50 [1] [nM]	Kd [2] [nM]	Kd [3] [nM]	GI50 [4] [nM]	Kd [5] [nM]
C=CC(=O)N[C@@H]1CN(c2nc(Nc3cn(CCCCNS(=O)(=O)c4ccc(Nc5ncc(Br)c(Nc6cccc(F)c6C(N)=O)n5)cc4)nc3OC)c3ncn(C)c3n2)CC1F (stereo partly drawn) [Compound I-150, 2-[[5-bromo-2-[4-[4-[4-[[2-[(4R)-3-fluoro-4-(prop-2-enoylamino)pyrrolidin-1-yl]-9-methyl-purin-6-yl]amino]-3-methoxy-pyrazol-1-yl]butylsulfamoyl]anilino]pyrimidin-4-yl]amino]-6-fluoro-benzamide]	500 to 1500	< 50	< 50	> 5000	< 50
C=CC(=O)N[C@@H]1CN(c2nc(Nc3cn(CCOCCOCCNC(=O)c4ccc(Nc5ncc6c(n5)N(C5CCCC5)[C@H](CC)C(=O)N6C)c(OC)c4)nc3OC)c3ncn(C)c3n2)C[C@H]1F [Compound I-128, 4-[[(7R)-8-cyclopentyl-7-ethyl-5-methyl-6-oxo-7H-pteridin-2-yl]amino]-N-[2[22-[2-[4-[[2-[(3R,4R)-3-fluoro-4-(prop-2-enoylamino)pyrrolidin-1-yl]-9-methyl-purin-6-yl]amino]-3-methoxy-pyrazol-1-yl]ethoxy]ethoxy]ethyl]-3-methoxy-benzamide]	500 to 1500	< 50	50 to 500	500 to 1500	50 to 500
C=CC(=O)Nc1cc(Nc2nccc(-c3cn(C)c4ccccc34)n2)c(OC)cc1N(C)CCN(C)CCOCCOCCOCCOCCOCCOCCOCCOCCON(C)C(=O)N1N=C(c2cc(F)ccc2F)SC1(CCCN)c1ccccc1 (stereo not drawn) [Compound I-69]	500 to 1500	< 50	< 50	< 500	500 to 2500
C=CC(=O)N[C@@H]1CN(c2nc(Nc3cn(CCOCCON(C)C(=O)N4N=C(c5cc(F)ccc5F)S[C@@]4(CCCN)c4ccccc4)nc3OC)c3ncn(C)c3n2)C[C@H]1F [Compound I-134, (2S)-2-(3-aminopropyl)-5-(2,5-difluorophenyl)-N—[2-[2-[4-[[2-[(3R,4R)-3-fluoro-4-(prop-2-enoylamino)pyrrolidin-1-yl]-9-methyl-purin-6-yl]amino]-3-methoxy-pyrazol-1-yl]ethoxy]ethoxy]-N-methyl-2-phenyl-1,3,4-thiadiazole-3-carboxamide]	> 5000	< 50	< 50	1500 to 5000	< 50
C=CC(=O)N[C@@H]1CN(c2nc(Nc3cn(CCCON(C)C(=O)N4N=C(c5cc(F)ccc5F)S[C@@]4(CCCN)c4ccccc4)nc3OC)c3ncn(C)c3n2)C[C@H]1F [Compound I-135, (2S)-2-(3-aminopropyl)-5-(2,5-difluorophenyl)-N-[3-[4-[[2-[(3R,4R)-3-fluoro-4-(prop-2-enoylamino)pyrrolidin-1-yl]-9-methyl-purin-6-yl]amino]-3-methoxy-pyrazol-1-yl]propoxy]-N-methyl-2-phenyl-1,3,4-thiadiazole-3-carboxamide]	> 5000	< 50	< 50	> 5000	< 50
C=CC(=O)Nc1cc(Nc2nccc(-c3cn(C)c4ccccc34)n2)c(OC)cc1N(C)CCN(C)CCCON(C)C(=O)N1N=C(c2cc(F)ccc2F)S[C@@]1(CCCN)c1ccccc1 [Compound I-130, (2S)-2-(3-aminopropyl)-5-(2,5-difluorophenyl)-N-[3-[2-[5-methoxy-N-methyl-4-[[4-(1-methylindol-3-yl)pyrimidin-2-yl]amino]-2-(prop-2-enoylamino)anilino]ethyl-methyl-amino]propoxy]-N-methyl-2-phenyl-1,3,4-thiadiazole-3-carboxamide]	500 to 1500	< 50	500 to 2500	500 to 1500	500 to 2500
CC[C@@H]1C(=O)N(C)c2cnc(Nc3ccc(C(=O)NCCOCCOCCOCCOCCOCCOCCN(C)C/C=C/C(=O)NC4CN(c5nc(Nc6cn(C)nc6OC)c6ncn(C)c6n5)C[C@H]4F)cc3OC)nc2N1C1CCCC1 (stereo partly drawn) [Compound I-121, 4-[[(7R)-8-cyclopentyl-7-ethyl-5-methyl-6-oxo-7H-pteridin-2-yl]amino]-N-[2-[2-[2-[2-[2-[2-[2-[[(E)-4-[1[(3R,4R)-4-fluoro-1-1[6-1[(3-methoxy-1-methyl-pyrazol-4-yl)amino]-9-methyl-purin-2-yl]pyrrolidin-3-yl]amino]-4-oxo-but-2-enyl]-methyl-amino]ethoxy]ethoxy]ethoxy]ethoxy]ethoxy]ethoxy]ethyl]-3-methoxy-benzamide]	500 to 1500	50 to 500	500 to 2500	–	500 to 2500
COc1cc(N(C)CCN(C)C)c(NC(=O)/C=C/CN(C)CCCN2CCN(CCCON(C)C(=O)N3N=C(c4cc(F)ccc4F)S[C@@]3(CCCN)c3ccccc3)CC2)cc1Nc1nccc(-c2cn(C)c3ccccc23)n1 [Compound I-146, (2S)-2-(3-aminopropyl)-5-(2,5-difluorophenyl)-N-[3-[4-1[3-[[(E)-4-1[2-[2-(dimethylamino)ethyl-methyl-amino]-4-methoxy-5-1[[4-(1-methylindol-3-yl)pyrimidin-2-yl]amino]anilino]-4-oxo-but-2-enyl]-methyl-amino]propyl]piperazin-1-yl]propoxy]-N-methyl-2-phenyl-1,3,4-thiadiazole-3-carboxamide]	–	< 50	500 to 2500	500 to 1500	500 to 2500
CC[C@@H]1C(=O)N(C)c2cnc(Nc3ccc(C(=O)NCCOCCOCCOCCOCCOCCOCCN(C)C/C=C/C(=O)Nc4cc(Nc5nccc(-c6cn(C)c7ccccc67)n5)c(OC)cc4N(C)CCN(C)C)cc3OC)nc2N1C1CCCC1 [Compound I-118, 4-[[(7R)-8-cyclopentyl-7-ethyl-5-methyl-6-oxo-7H-pteridin-2-yl]amino]-N-[2-[2-[2-[2-[2-[2-[2-[[(E)-4-[2-[2-(dimethylamino)ethyl-methyl-amino]-4-methoxy-5-[[4-(1-methylindol-3-yl)pyrimidin-2-yl]amino]anilino]-4-oxo-but-2-enyl]-methyl-amino]ethoxy]ethoxy]ethoxy]ethoxy]ethoxy]ethoxy]ethyl]-3-methoxy-benzamide]	500 to 1500	50 to 500	> 2500	–	> 2500
